From US6121257A, “Sulfamate containing macrocyclic immunomodulators” (Abbott Laboratories, priority 1999, dated 2000)

The compounds below were run on human mixed lymphocyte reaction (MLR) (assay: human mixed lymphocyte reaction (MLR) assay). Conditions: Table 1.
Type: cell-based
Procedure: The immunosuppressant activity of the compounds of the present invention was determined using the human mixed lymphocyte reaction (MLR) assay described by Kino, T. et al., in Transplantation Proceedings, XIX(5):36-39, Suppl. 6 (1987), hereby incorporated by reference.

Structure (SMILES) | IC50 [nM]
CC[C@@H]1/C=C(\C)C[C@H](C)C[C@H](OC)[C@H]2O[C@@](O)(C(=O)C(=O)N3CCCC[C@H]3C(=O)O[C@H](/C(C)=C/[C@@H]3CC[C@@H](OS(=O)(=O)NC(=O)OC)[C@H](OC)C3)[C@H](C)[C@@H](O)CC1=O)[C@H](C)C[C@@H]2OC [Example 1, (1R,9S,12S,13R,14S,17R,21S,23S,24R,25S,27R)-17-ethyl-1,14-dihydroxy-23,25-dimethoxy-12-{(E)-2-[(1R,3R,4R)-3-methoxy-4-({[(methoxycarbonyl)amino]sulfonyl)oxy)cyclohexyl]-1-methylethenyl}-13,19,21,27-tetramethyl-2,3,10,16-tetraoxo-11,28-dioxa-4-azatricyclo[22.3.1.0^4,9]octacos-18-ene] | 0.73
CCOC(=O)NS(=O)(=O)O[C@@H]1CC[C@@H](/C=C(\C)[C@H]2OC(=O)[C@@H]3CCCCN3C(=O)C(=O)[C@]3(O)O[C@H]([C@@H](OC)C[C@@H](C)C/C(C)=C/[C@@H](CC)C(=O)C[C@H](O)[C@H]2C)[C@@H](OC)C[C@H]3C)C[C@H]1OC [Example 2, (1R,9S12S,13R,14S,17R,21S,23S,24R,25S,27R)-12-{(E)-2-[(1R,3R,4R)-4-({[(ethoxycarbonyl)amino]sulfonyl}oxy)-3-methoxycyclohexyl]-1-methylethenyl}-17-ethyl-1,14-dihydroxy-23,25-dimethoxy-13,19,21,27-tetramethyl-2,3,10,16-tetraoxo-11,28-dioxa-4-azatricyclo[22.3.1.0^4,9]octacos-18-ene] | 0.57
CC[C@@H]1/C=C(\C)C[C@H](C)C[C@H](OC)[C@H]2O[C@@](O)(C(=O)C(=O)N3CCCC[C@H]3C(=O)O[C@H](/C(C)=C/[C@@H]3CC[C@@H](OS(=O)(=O)NC(=O)OCc4ccccc4)[C@H](OC)C3)[C@H](C)[C@@H](O)CC1=O)[C@H](C)C[C@@H]2OC [Example 3, (1R,9S,12S,13R,14S,17R,21 S,23S,24R,25S,27R)-12-((E)-2-{(1R,3R,4R)-4-[({[(benzyloxy)carbonyl]amino]sulfonyl)oxy]-3-methoxycyclohexyl}-1-methylethenyl)-17-ethyl-1,14-dihydroxy-23,25-dimethoxy-13,19,21,27-tetramethyl-2,3,10,16-tetraoxo-11,28-dioxa-4-azatricyclo[22.3.1.0^4,9]octacos-18-ene] | 3.96
CC[C@@H]1/C=C(\C)C[C@H](C)C[C@H](OC)[C@H]2O[C@@](O)(C(=O)C(=O)N3CCCC[C@H]3C(=O)O[C@H](/C(C)=C/[C@@H]3CC[C@@H](OS(=O)(=O)NC(=O)OC(C)(C)C)[C@H](OC)C3)[C@H](C)[C@@H](O)CC1=O)[C@H](C)C[C@@H]2OC [Example 4, (1R,9S,12S,13R,14S,17R,21S,23S,24R,25S,27R)-12-{(E)-2-[(1R,3R,4R)-4-({[(tert-butoxycarbonyl)amino]sulfonyl}oxy)-3-methoxycyclohexyl]-1-methylethenyl}-17-ethyl-1,14-dihydroxy-23,25-dimethoxy-13,19,21,27-tetramethyl-2,3,10,16-tetraoxo-11,28-dioxa-4-azatricyclo[22.3.1.0^4,9]octacos-18-ene] | 0.99
CC[C@@H]1/C=C(\C)C[C@H](C)C[C@H](OC)[C@H]2O[C@@](O)(C(=O)C(=O)N3CCCC[C@H]3C(=O)O[C@H](/C(C)=C/[C@@H]3CC[C@@H](OS(=O)(=O)NC(=O)OC4CCCC4)[C@H](OC)C3)[C@H](C)[C@@H](O)CC1=O)[C@H](C)C[C@@H]2OC [Example 5, (1R,9S,12S,13R,14S,17R,21S,23S,24R,25S,27R)-12-((E)-2-{(1R,3R.4R)-4-[({[(cyclopentyloxy)carbonyl]amino}sulfonyl)oxy]-3-methoxycyclohexyl}-1-methylethenyl)-17-ethyl-1,14-dihydroxy-23,25-dimethoxy-13,19,21,27-tetramethyl-2,3,10,16-tetraoxo-11,28-dioxa-4-azatricyclo[22.3.1.0^4,9]octacos-18-ene] | 26.1
CC[C@@H]1/C=C(\C)C[C@H](C)C[C@H](OC)[C@H]2O[C@@](O)(C(=O)C(=O)N3CCCC[C@H]3C(=O)O[C@H](/C(C)=C/[C@@H]3CC[C@@H](OS(=O)(=O)NC(=O)OC4CCCCC4)[C@H](OC)C3)[C@H](C)[C@@H](O)CC1=O)[C@H](C)C[C@@H]2OC [Example 6, (1R,9S,12S,13R,14S,17R,21S,23S,24R,25S,27R)-12-((E)-2-{(1R,3R,4R)-4-[({[(cyclohexyloxy)carbonyl]amino}sulfonyl)oxy]-3-methoxycyclohexyl}-1-methylethenyl)-17-ethyl-1,14-dihydroxy-23,25-dimethoxy-13,19,21,27-tetramethyl-2,3,10,16-tetraoxo-11,28-dioxa-4-azatricyclo[22.3.1.0^4,9]octacos-18-ene] | 4.7
CC[C@@H]1/C=C(\C)C[C@H](C)C[C@H](OC)[C@H]2O[C@@](O)(C(=O)C(=O)N3CCCC[C@H]3C(=O)O[C@H](/C(C)=C/[C@@H]3CC[C@@H](OS(=O)(=O)NC(=O)OC4CCCCCC4)[C@H](OC)C3)[C@H](C)[C@@H](O)CC1=O)[C@H](C)C[C@@H]2OC [Example 7, (1R,9S,12S,13R,14S,17R,21S,23S,24R,25S,27R)-12-((E)-2-{(1R,3R,4R)-4-[({[(cycloheptyloxy)carbonyl]amino}sulfonyl)oxy]-3-methoxycyclohexyl}-1-methylethenyl)-17-ethyl-1,14-dihydroxy-23,25-dimethoxy-13,19,21,27-tetramethyl-2,3,10,16-tetraoxo-11,28-dioxa-4-azatricyclo[22.3.1.0^4,9]octacos-18-ene] | 9.63
CC[C@@H]1/C=C(\C)C[C@H](C)C[C@H](OC)[C@H]2O[C@@](O)(C(=O)C(=O)N3CCCC[C@H]3C(=O)O[C@H](/C(C)=C/[C@@H]3CC[C@@H](OS(=O)(=O)NC(=O)OCc4ccncc4)[C@H](OC)C3)[C@H](C)[C@@H](O)CC1=O)[C@H](C)C[C@@H]2OC [Example 8, (1R,9S,12S,13R,14S,17R,21S,23S,24R,25S,27R)-17-ethyl-1,14-dihydroxy-23,25-dimethoxy-12-((E)-2-{(1R,3R,4R)-3-methoxy-4-[({[(4-pyridinylmethoxy)carbonyl]amino}sulfonyl)oxy]cycyclohexyl}-1-methylethenyl)-13,19,21,27-tetramethyl-2,3,10,16-tetraoxo-11,28-dioxa-4-azatricyclo[22.3.1.0^4,9]octacos-18-ene] | 0.1
CC[C@@H]1/C=C(\C)C[C@H](C)C[C@H](OC)[C@H]2O[C@@](O)(C(=O)C(=O)N3CCCC[C@H]3C(=O)O[C@H](/C(C)=C/[C@@H]3CC[C@@H](OS(=O)(=O)NC(=O)OCc4cccnc4)[C@H](OC)C3)[C@H](C)[C@@H](O)CC1=O)[C@H](C)C[C@@H]2OC [Example 9, (1R,9S,12S,13R,14S,17R,21S,23S,24R,25S,27R)-17-ethyl-1,14-dihydroxy-23,25-dimethoxy-12-((E)-2-{(1R,3R,4R)-3-methoxy-4-[({[(3-pyridinylmethoxy)carbonyl]amino}sulfonyl)oxy]cyclohexyl}-1-methylethenyl)-13,19,21,27-tetramethyl-2,3,10,16-tetraoxo-11,28-dioxa-4-azatricyclo[22.3.1.0^4,9]octacos-18-ene] | 4.77
CC[C@@H]1/C=C(\C)C[C@H](C)C[C@H](OC)[C@H]2O[C@@](O)(C(=O)C(=O)N3CCCC[C@H]3C(=O)O[C@H](/C(C)=C/[C@@H]3CC[C@@H](OS(=O)(=O)NC(=O)OCc4ccccn4)[C@H](OC)C3)[C@H](C)[C@@H](O)CC1=O)[C@H](C)C[C@@H]2OC [Example 10, (1R,9S,12S.13R,14S,17R,21S,23S,24R,25S,27R)-17-ethyl-1,14-dihydroxy-23,25-dimethoxy-12-((E)-2-[(1R,3R,4R)-3-methoxy-4-[({[(2-pyridinylmethoxy)carbonyl]amino}sulfonyl)oxy]cyclohexyl]-1-methylethenyl)-13,19,21,27-tetramethyl-2,3,10,16-tetraoxo-11,28-dioxa-4-azatricyclo[22.3.1.0^4,9]octacos-18-ene] | 0.16
CC[C@@H]1/C=C(\C)C[C@H](C)C[C@H](OC)[C@H]2O[C@@](O)(C(=O)C(=O)N3CCCC[C@H]3C(=O)O[C@H](/C(C)=C/[C@@H]3CC[C@@H](OS(=O)(=O)NC(=O)OCc4ccc([N+](=O)[O-])cc4)[C@H](OC)C3)[C@H](C)[C@@H](O)CC1=O)[C@H](C)C[C@@H]2OC [Example 11, (1R,9S,12S,13R,14S,17R,21S,23S,24R,25S,27R)-17-ethyl-1,14-dihydroxy-23,25-dimethoxy-12-[(E)-2-((1R,3R,4R)-3-methoxy-4-{[({[(4-nitrobenzyl)oxy]carbonyl}amino)sulfonyl]oxy}cyclohexyl)-1-methylethenyl]-13,19,21,27-tetramethyl-2,3,10,16-tetraoxo-11,28-dioxa-4-azatricyclo[22.3.1.0^4,9]octacos-18-ene] | 6.68
CC[C@@H]1/C=C(\C)C[C@H](C)C[C@H](OC)[C@H]2O[C@@](O)(C(=O)C(=O)N3CCCC[C@H]3C(=O)O[C@H](/C(C)=C/[C@@H]3CC[C@@H](OS(=O)(=O)NC(=O)O[C@@H]4C[C@H](C)CC[C@H]4C(C)C)[C@H](OC)C3)[C@H](C)[C@@H](O)CC1=O)[C@H](C)C[C@@H]2OC [Example 12] | 24.5
CC[C@@H]1/C=C(\C)C[C@H](C)C[C@H](OC)[C@H]2O[C@@](O)(C(=O)C(=O)N3CCCC[C@H]3C(=O)O[C@H](/C(C)=C/[C@@H]3CC[C@@H](OS(=O)(=O)NC(=O)OCC45CC6CC(CC(C6)C4)C5)[C@H](OC)C3)[C@H](C)[C@@H](O)CC1=O)[C@H](C)C[C@@H]2OC [Example 13, (1R,9S,12S,13R,14S,17R,21S,23S,24R,25S,27R)-12-((E)-2-{(1R,3R,4R)-4-[({[(1-adamantylmethoxy)carbonyl]amino}sulfonyl)oxy]-3-methoxycyclohexyl}-1-methylethenyl)-17-ethyl-1,14-dihydroxy-23,25-dimethoxy-13,19,21,27-tetramethyl-2,3,10,16-tetraoxo-11,28-dioxa-4-azatricyclo[22.3.1.0^4,9]octacos-18-ene] | 21.6
